Test results as given in patent publication US20100093702A1, “METHYLENE AMINES OF THIENO[2,3-d]PYRIMIDINE AND THEIR USE AS ADENOSINE A2a RECEPTOR ANTAGONISTS” (priority 2008, published 2010).

Experiments:
[1] = target: T1, human adenosine A2a receptor (Homo sapiens, UniProt P29274); assay: Adenosine A2a Receptor Functional Assay (A2AGAL2); assay type: cell-based; conditions: CHO-K1 cells, cAMP inducible beta-galactosidase reporter, 15 nM NECA agonist challenge
T1 construct: expressed in transfected cells; host or cells: CHO-K1
T1 sequence (P29274 whole entry): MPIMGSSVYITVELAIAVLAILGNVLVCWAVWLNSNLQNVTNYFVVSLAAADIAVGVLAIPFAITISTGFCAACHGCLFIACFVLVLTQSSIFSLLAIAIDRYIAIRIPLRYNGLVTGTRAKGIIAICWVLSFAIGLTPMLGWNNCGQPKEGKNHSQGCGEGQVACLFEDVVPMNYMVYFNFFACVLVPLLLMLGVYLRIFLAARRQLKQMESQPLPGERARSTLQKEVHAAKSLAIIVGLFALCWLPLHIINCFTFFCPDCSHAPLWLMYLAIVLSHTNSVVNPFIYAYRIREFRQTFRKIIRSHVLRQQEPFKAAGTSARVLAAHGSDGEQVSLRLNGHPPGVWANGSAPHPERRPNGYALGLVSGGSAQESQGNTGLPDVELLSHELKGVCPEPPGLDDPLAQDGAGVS
Protocol: Adenosine A2a Receptor Functional Assay (A2AGAL2)
To initiate the functional assay, cryopreserved CHO-K1 cells overexpressing the human adenosine A2a receptor and containing a cAMP inducible beta-galactosidase reporter gene were thawed, centrifuged, DMSO containing media removed, and then seeded with fresh culture media into clear 384-well tissue culture treated plates (BD #353961) at a concentration of 10K cells/well. Prior to assay, these plates were cultured for two days at 37° C., 5% CO2, 90% Rh. On the day of the functional assay, culture media was removed and replaced with 45 uL assay medium (Hams/F-12 Modified (Mediatech # 10-080CV) supplemented w/0.1% BSA). Test compounds were diluted and 11 point curves created at a 1000× concentration in 100% DMSO. Immediately after addition of assay media to the cell plates, 50 nL of the appropriate test compound antagonist or agonist control curves were added to cell plates using a Cartesian Hummingbird. Compound curves were allowed to incubate at room temperature on cell plates for approximately 15 minutes before addition of a 15 nM NECA (Sigma E2387) agonist challenge (5 uL volume). A control curve of NECA, a DMSO/Media control, and a single dose of Forskolin (Sigma F3917) were also included on each plate. After additions, cell plates were allowed to incubate at 37° C., 5% CO2, 90% Rh for 5.5-6 hours. After incubation, media was removed, and cell plates were washed 1×50 uL with DPBS w/o Ca & Mg (Mediatech 21-031-CV). Into dry wells, 20 uL of 1× Reporter Lysis Buffer (Promega E3971 (diluted in dH2O from 5× stock)) was added to each well and plates frozen at −20° C. overnight. For β-galactosidase enzyme calorimetric assay, plates were thawed out at room temperature and 20 μL 2× assay buffer (Promega) was added to each well. Color was allowed to develop at 37° C., 5% CO2, 90% Rh for 1-1.5 h or until reasonable signal appeared. The calorimetric reaction was stopped with the addition of 60 μL/well 1M sodium carbonate. Plates were counted at 405 nm on a SpectraMax Microplate Reader (Molecular Devices). Data was analyzed in Microsoft Excel and IC/EC50 curves were fit using a standardized macro.

[2] = target: T2, human A2a adenosine receptor (Homo sapiens, UniProt P29274); assay: Ligand Binding Assay for Adenosine A2a Receptor (A2A-B); conditions: HEK293 plasma membrane, radioligand [3H]CGS21680
T2 construct: purchased PerkinElmer RB-HA2a; host or cells: HEK293
T2 sequence (P29274 whole entry): as above
Protocol: Ligand Binding Assay for Adenosine A2a Receptor
Ligand binding assay of adenosine A2a receptor was performed using plasma membrane of HEK293 cells containing human A2a adenosine receptor (PerkinElmer, RB-HA2a) and radioligand [^3H]CGS21680 (PerkinElmer, NET 1021). Assay was set up in 96-well polypropylene plate in total volume of 200 μL by sequentially adding 20 μL 1:20 diluted membrane, 130 μL assay buffer (50 mM Tris.HCl, pH7.4 10 mM MgCl2, 1 mM EDTA) containing [^3H] CGS21680, 50 μL diluted compound (4×) or vehicle control in assay buffer. Nonspecific binding was determined by […] NECA. Reaction was carried out at room temperature for 2 hours before filtering through 96-well GF/C filter plate pre-soaked in 50 mM Tris.HCl, pH7.4 containing 0.3% polyethylenimine. Plates were then washed 5 times with cold 50 mM Tris.HCl, pH7.4, dried and sealed at the bottom. Microscintillation fluid 30 μL was added to each well and the top sealed. Plates were counted on Packard Topcount for [^3H]. Data was analyzed in Microsoft Excel and GraphPad Prism programs. (Varani, K.; Gessi, S.; Dalpiaz, A.; Borea, P. A. British Journal of Pharmacology, 1996, 117, 1693)

[3] = target: T3, human adenosine A1 receptor (Homo sapiens, UniProt P30542); assay: Adenosine A1 Receptor Functional Assay (A1GAL2); assay type: cell-based; conditions: CHO-K1 cells, cAMP inducible beta-galactosidase reporter, 4 nM r-PIA/1 uM Forskolin challenge
T3 construct: expressed in transfected cells; host or cells: CHO-K1
T3 sequence (P30542 1-326): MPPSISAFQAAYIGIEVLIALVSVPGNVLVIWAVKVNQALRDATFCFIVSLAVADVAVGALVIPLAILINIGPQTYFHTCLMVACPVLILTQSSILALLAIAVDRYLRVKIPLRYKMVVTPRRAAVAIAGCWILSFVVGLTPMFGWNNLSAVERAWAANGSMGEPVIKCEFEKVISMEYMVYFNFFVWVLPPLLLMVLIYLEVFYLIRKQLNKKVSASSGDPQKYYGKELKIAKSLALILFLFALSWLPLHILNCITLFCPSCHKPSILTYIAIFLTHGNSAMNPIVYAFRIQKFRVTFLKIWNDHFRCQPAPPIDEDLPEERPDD
Protocol: Adenosine A1 Receptor Functional Assay (A1GAL2)
To initiate the functional assay, cryopreserved CHO-K1 cells overexpressing the human adenosine A1 receptor and containing a cAMP inducible beta-galactosidase reporter gene were thawed, centrifuged, DMSO containing media removed, and then seeded with fresh culture media into clear 384-well tissue culture treated plates (BD #353961) at a concentration of 10K cells/well. Prior to assay, these plates were cultured for two days at 37° C., 5% CO2, 90% Rh. On the day of the functional assay, culture media was removed and replaced with 45 uL assay medium (Hams/F-12 Modified (Mediatech # 10-080CV) supplemented w/0.1% BSA). Test compounds were diluted and 11 point curves created at a 1000× concentration in 100% DMSO. Immediately after addition of assay media to the cell plates, […] of the appropriate test compound antagonist or agonist control curves were added to cell plates using a Cartesian Hummingbird. Compound curves were allowed to incubate at room temperature on cell plates for approximately 15 minutes before addition of a 4 nM r-PIA (Sigma P4532)/1 uM Forskolin (Sigma F3917) agonist challenge (5 uL volume). A control curve of r-PIA in 1 uM Forskolin, a DMSO/Media control, and a single dose of Forskolin were also included on each plate. After additions, cell plates were allowed to incubate at 37° C., 5% CO2, 90% Rh for 5.5-6 hours. After incubation, media was removed, and cell plates were washed 1×50 uL with DPBS w/o Ca & Mg (Mediatech 21-031-CV).
Into dry wells, 20 uL of 1× Reporter Lysis Buffer (Promega E3971 (diluted in dH2O from 5× stock)) was added to each well and plates frozen at −20° C. overnight. For β-galactosidase enzyme calorimetric assay, plates were thawed out at room temperature and 20 μL 2× assay buffer (Promega) was added to each well. Color was allowed to develop at 37° C., 5% CO2, 90% Rh for 1-1.5 h or until reasonable signal appeared. The calorimetric reaction was stopped with the addition of 60 μL/well 1M sodium carbonate. Plates were counted at 405 nm on a SpectraMax Microplate Reader (Molecular Devices). Data was analyzed in Microsoft Excel and IC/EC50 curves were fit using a standardized macro.

SMILES	Ki [1]	Ki [2]	Ki [3]
CC(C)c1ccccc1-c1nc(N)c2cc(CN3CCC(F)CC3)sc2n1 [Example 79, 6-(4-Fluoro-piperidin-1-ylmethyl)-2-(2-isopropyl-phenyl)-thieno[2,3-d]pyrimidin-4-ylamine]	1040 nM	7410 nM	4470 nM
N#Cc1ccccc1-c1nc(N)c2cc(CN3CCC(F)CC3)sc2n1 [Example 73, 2-[4-Amino-6-(4-fluoro-piperidin-1-ylmethyl)-thieno[2,3-d]pyrimidin-2-yl]-benzonitrile]	1030 nM	2020 nM	5050 nM
Cc1ccc(-c2nc(N)c3cc(CN4CCC(O)C4)sc3n2)o1 (centres unmarked) [Example 40, 1-[4-Amino-2-(5-methyl-furan-2-yl)-thieno[2,3-d]pyrimidin-6-ylmethyl]-pyrrolidin-3-ol]		375 nM	
COCCNCc1cc2c(N)nc(-c3ccco3)nc2s1 [Example 33, 2-Furan-2-yl-6-[(2-methoxy-ethylamino)-methyl]-thieno[2,3-d]pyrimidin-4-ylamine]		216 nM	
Nc1nc(-c2cccs2)nc2sc(CN3CCOCC3)cc12 [Example 26, 6-Morpholin-4-ylmethyl-2-thiophen-2-yl-thieno[2,3-d]pyrimidin-4-ylamine]		207 nM	
Cn1cccc1-c1nc(N)c2cc(CN3CCC(F)CC3)sc2n1 [Example 78, 6-(4-Fluoro-piperidin-1-ylmethyl)-2-(1-methyl-1H-pyrrol-2-yl)-thieno[2,3-d]pyrimidin-4-ylamine]	634 nM	733 nM	1600 nM
Cc1ccc(-c2nc(N)c3cc(CN4CCN(C)CC4)sc3n2)o1 [Example 36, 2-(5-Methyl-furan-2-yl)-6-(4-methyl-piperazin-1-ylmethyl)-thieno[2,3-d]pyrimidin-4-ylamine]		371 nM	
Nc1nc(-c2cc(F)cc(F)c2)nc2sc(CN3CCOCC3)cc12 [Example 47, 2-(3,5-Difluoro-phenyl)-6-morpholin-4-ylmethyl-thieno[2,3-d]pyrimidin-4-ylamine]	349 nM		2300 nM
Nc1nc(-c2ccon2)nc2sc(CN3CCOCC3)cc12 [Example 16, 2-Isoxazol-3-yl-6-morpholin-4-ylmethyl-thieno[2,3-d]pyrimidin-4-ylamine]	1010 nM		678 nM
Nc1nc(-c2ccc(F)c(F)c2)nc2sc(CN3CCOCC3)cc12 [Example 50, 2-(3,4-Difluoro-phenyl)-6-morpholin-4-ylmethyl-thieno[2,3-d]pyrimidin-4-ylamine]	361 nM		2890 nM

Further molecules by falling Ki [1], results first:

Ki [1]	Ki [2]	Ki [3]	SMILES
238 nM	1020 nM	3890 nM	Nc1nc(-c2cocn2)nc2sc(CN3CC=CC3)cc12 [Example 69, 6-(2,5-Dihydro-pyrrol-1-ylmethyl)-2-oxazol-4-yl-thieno[2,3-d]pyrimidin-4-ylamine]
130 nM		504 nM	C[C@@H]1CCC[C@H](C)N1Cc1cc2c(N)nc(-c3ccon3)nc2s1 [Example 18, 6-(2,6-Dimethyl-piperidin-1-ylmethyl)-2-isoxazol-3-yl-thieno[2,3-d]pyrimidin-4-ylamine]
123 nM		616 nM	Nc1nc(-c2cccc(F)c2)nc2sc(CN3CCOCC3)cc12 [Example 61, 2-(3-Fluoro-phenyl)-6-morpholin-4-ylmethyl-thieno[2,3-d]pyrimidin-4-ylamine]
123 nM	934 nM	876 nM	Nc1nc(-c2ccnc(Cl)c2)nc2sc(CN3CCOCC3)cc12 [Example 105, 2-(2-Chloro-pyridin-4-yl)-6-morpholin-4-ylmethyl-thieno[2,3-d]pyrimidin-4-ylamine]
50.3 nM	384 nM	1180 nM	N#Cc1cccc(-c2nc(N)c3cc(CN4CCCC(F)(F)C4)sc3n2)c1 [Example 62, 3-[4-Amino-6-(3,3-difluoro-piperidin-1-ylmethyl)-thieno[2,3-d]pyrimidin-2-yl]-benzonitrile]
30.5 nM	66.1 nM	2700 nM	Nc1nc(-c2ccc(C(F)F)o2)nc2sc(CN3CCOCC3)cc12 [Example 107, 2-(5-Difluoromethyl-furan-2-yl)-6-morpholin-4-ylmethyl-thieno[2,3-d]pyrimidin-4-ylamine]
28.1 nM	14.4 nM	6430 nM	Nc1nc(-c2ccco2)nc2sc(CN3CCCC3)cc12 [Example 28, 2-Furan-2-yl-6-pyrrolidin-1-ylmethyl-thieno[2,3-d]pyrimidin-4-ylamine]
12.3 nM	14 nM	656 nM	Nc1nc(-c2ccco2)nc2sc(CN3CC[C@H](F)C3)cc12 [Example 53, 6-(3-Fluoro-pyrrolidin-1-ylmethyl)-2-furan-2-yl-thieno[2,3-d]pyrimidin-4-ylamine]
10.2 nM	0.54 nM	783 nM	Nc1nc(-c2ccc(Cl)o2)nc2sc(CN3CC=CC3)cc12 [Example 97, 2-(5-Chloro-furan-2-yl)-6-(2,5-dihydro-pyrrol-1-ylmethyl)-thieno[2,3-d]pyrimidin-4-ylamine]
8.85 nM	20.3 nM	158 nM	Nc1nc(-c2ccco2)nc2sc(CN3CC=CCC3)cc12 [Example 98, 6-(3,6-Dihydro-2H-pyridin-1-ylmethyl)-2-furan-2-yl-thieno[2,3-d]pyrimidin-4-ylamine]
5.65 nM	1.4 nM	99.8 nM	C[C@@H]1CCC[C@H](C)N1Cc1cc2c(N)nc(-c3ccco3)nc2s1 [Example 44, 6-(2,6-Dimethyl-piperidin-1-ylmethyl)-2-furan-2-yl-thieno[2,3-d]pyrimidin-4-ylamine]
